# Test results: patent publication US6312704A, “Orally administrable composition capable of providing enhanced bioavailability when ingested” (Gattefosse, S.A., priority 1993, dated 2001)
# Legend:
# [1] = assay type: physicochemical; details: gastric medium pH 1.2
# Excerpt: The proportions by weight of the different constituents of this mixture are: […]
# [2] = in vitro rate of dissolution of hydrocortisone in a gastric medium (pH 1.2); assay type: physicochemical
# Excerpt: In this example, the rates of dissolution of hydrocortisone in a gastric medium (at pH 1.2) are compared.
# The same lipophilic phase and the same SA/CoSA mixture are used as in Example 8, but in the following proportions: […]
# [3] = in vivo test on rats, plasma concentrations after oral administration of indomethacin; details: powder made into a suspension immediately before use
# Description: In vivo tests were conducted on rats with indomethacin as active agent.
# (§1) The proportions by weight of the different constituents of this mixture are:
# An oral administration of indomethacin is first carried out according to the above composition.
# A second series of tests consists in administering indomethacin orally in the form of powder made into a suspension immediately before use.
# [4] = in vitro dissolution of indomethacin in a gastric medium at pH 1.2; assay type: physicochemical; details: gastric medium pH 1.2
# Description: In all the examples, the complement by weight to […] of the composition is, in actual fact, represented by an anti-inflammatory active principle, namely indomethacin in Examples 1 to 8, and 12, hydrocortisone in Example 9 and diclofenac sodium in Example 10. In examples 1-12, the hydrophilic phase is represented by water which is known to be a simulation of the digestive milieu for in vitro tests.
# By way of comparison, when the pure active agent (indomethacin) is tested, at best only 5% of this active agent is dissolved in one hour; and still by way of comparison, with hard gelatin capsules of this active principle which are currently on the market, only 4.7% of active agent dissolved is obtained at the end of one hour.
# In this example, the rates of dissolution in vitro in a gastric medium (at pH =1.2), in which indomethacin alone has a rate of dissolution of less than 5% in the same medium, are compared.
# as §1
# In this example, the same components are used as in the preceding example, with different proportions, namely: […]
structure (smiles),measurement,setting,value
O=C(O)Cc1ccccc1Nc1c(Cl)cccc1Cl [diclofenac sodium],rate of dissolution in 30 min,[1]; 30 min,1%
same,solubility in gastric medium (in words),[1]; powder form,almost insoluble
C[C@]12CCC(=O)C=C1CC[C@@H]1[C@@H]2[C@@H](O)C[C@@]2(C)[C@H]1CC[C@]2(O)C(=O)CO [hydrocortisone],rate of dissolution in 45 minutes,[2],10%
COc1ccc2c(c1)c(CC(=O)O)c(C)n2C(=O)c1ccc(Cl)cc1 [indomethacin],kinetics obtained,[3],irregular and vary from one animal to another
same,concentration at 1 h,"[3]; rat, in vivo, one hour",1000 to 5000 ng/mL
same,concentration at 2 h,"[3]; rat, in vivo, two hours",1000 to 4000 ng/mL
same,percentage of the active agent dissolved at the end of one hour,[4]; one hour,≤ 5%
same,rate of dissolution,"[4]; indomethacin alone, time not stated",less than 5%
